# In the METLIN SMRT retention time set (Domingo-Almenara et al. 2019):
# Assay: gradient 5% acetonitrile 3 min, to 50% in 2 min, to 85% in 15 min, held 3 min, 100 µL/min
# Conditions: column: Zorbax Extend-C18 2.1 x 50 mm; eluents: water / acetonitrile, 0.1% formic acid
# Outline: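 Retention times come from adduct peaks that were picked computationally and then checked by hand. The standards, pure and pooled in mixtures of ~100 molecules, were run on a Zorbax Extend-C18 column (2.1 × 50 mm, 1.8 μm) at 100 μL/min with water and acetonitrile, each with 0.1% formic acid. Detection was by quadrupole time-of-flight mass spectrometry in positive and negative ionization mode, with a dead volume of 40 μL and a dwell volume of 900 μL.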
row,RP-LC retention time,Structure (SMILES)
1,692 s,CCOc1ccc(NC(=O)CCC2CCCN(c3cc(NC4CC4)ncn3)C2)cc1 (centres undefined)
2,663 s,Cn1cnc(S(=O)(=O)N2CCC(C(=O)NCCc3ccccc3)CC2)c1
3,780 s,Cc1ccc(NC(=O)N2CCC(N3CCN(Cc4ccccc4)C(=O)C3=O)CC2)cc1C
4,709 s,Cc1cc(S(=O)(=O)N2CC(N(Cc3ccncc3)CC3CC3)C2)ccc1F
5,1100 s,COc1ccc(N2CCN(c3cc(SCC(=O)Nc4ccc(F)cc4)ncn3)CC2)cc1
6,824 s,CCN(CC)C(=O)N1CC(Oc2ccc(-c3nc(C)no3)cc2)C1
7,649 s,O=C(c1cc(-c2ccc(Br)cc2)n[nH]1)N1CCN(c2ccc(N3CCOCC3)nn2)CC1
8,735 s,O=C(c1cc(C2CC2)[nH]n1)N1CC(n2cc(COc3ccc(F)cc3)nn2)C1
9,537 s,O=C(NCCc1ccncc1)C1CCCN(c2nnc3ccc(C(F)(F)F)cn23)C1 (centres undefined)
10,743 s,COc1cccc(NC(=O)c2c(C)oc3nc(C)nc(N4CCCC4)c23)c1
11,893 s,Cc1cc(C2CCCN2C(=O)Nc2ccc(C)c(Cl)c2)on1 (centres undefined)
12,930 s,CC(C)c1ccc(NC(=O)C2CCN(S(C)(=O)=O)c3ccccc3O2)cc1 (centres undefined)
13,649 s,O=C(NC1CC1)c1cccc2c1CCN2C(=O)C1CC1
14,871 s,CCOCCCNC(=O)C(C)Oc1ccc(=O)n(-c2ccc(C)c(C)c2)n1 (centres undefined)
15,846 s,CCC(=O)N1CCc2cc(-c3ccc(C(=O)NC(C)C(=O)N4CCCCC4)cc3)ccc21 (centres undefined)
16,1160 s,Cc1cccc(-c2nc(C3CCN(S(=O)(=O)c4ccccc4F)CC3)no2)c1
17,703 s,COc1ccc(-c2nnc(COc3ccc(NC(=O)C4CCN(C(C)=O)CC4)cc3)o2)cc1
18,754 s,CC(C)c1ccc(NC(=O)Cn2cnc3nc(N4CCCC(C(=O)NC5CC5)C4)sc3c2=O)cc1 (centres undefined)
19,867 s,Cc1nc(-c2ccc(N3CCN(C(=O)c4nccc5ccccc45)CC3)nc2)sc1C
20,666 s,CCCCN(C(=O)c1nc(C)n(C2CCN(S(C)(=O)=O)CC2)c1C)c1ccccc1
21,930 s,Cc1cc(C)cc(NC(=O)CN2C(=O)CCc3cc(S(=O)(=O)N4CCCCC4C)ccc32)c1 (centres undefined)

row,RP-LC retention time,Structure (SMILES)
1,614 s,O=C(NC1CCCC1)c1ccn[nH]1
2,935 s,COc1ccc(Cl)cc1S(=O)(=O)N1CCCC(C(=O)NCCc2ccccc2)C1 (centres undefined)
3,673 s,CCOc1ccccc1C(=O)N1CCN(c2nnc(SCC(=O)NC(C)C)s2)CC1
4,860 s,O=C(NC(c1ccccc1)c1nnc(N2CCCC2)o1)c1ccc(Cl)cc1 (centres undefined)
5,757 s,COc1ccc(CCNC(=O)C2CCc3nc(N4CCC(C)CC4)ncc3C2)cc1OC (centres undefined)
6,612 s,CCc1nn(CC(=O)N2CCC(C(N)=O)CC2)c(=O)c2cc3occc3n12
7,816 s,Cc1cc(-c2ccc(S(=O)(=O)N3CCC(C(=O)NCc4ccccc4C)CC3)o2)n[nH]1
8,955 s,Cc1cc2nn(CC(=O)Nc3cccc(C(C)C)c3)c(=O)n2c(-c2ccccc2)n1
9,766 s,N#Cc1cnc2ccc(F)cc2c1N1CCC(C(=O)N2CCSCC2)CC1
10,996 s,CC(=O)c1ccc(NC(=O)CN2C(=O)C3CCCCN3c3ccc(C(=O)N4CCCC4)cc32)cc1 (centres undefined)
11,838 s,Cc1ccc(Cl)cc1N1C(=O)CN(S(C)(=O)=O)CC1(C)C(=O)NC1CCCC1 (centres undefined)
12,822 s,CCN1C(=O)c2c(C(=O)NCCCc3ccccc3)ncn2CC1(C)C(=O)NC1CCCC1 (centres undefined)
13,864 s,Cc1ccc(CNC(=O)C2(C)CCCN(C(=O)NCc3ccc(F)cc3)C2)cc1 (centres undefined)
14,752 s,Cc1cc(C)n2nc(SCC(=O)NC3CCC(C)CC3)nc2n1 (centres undefined)
15,762 s,O=C(NCC1CC1)c1cn(-c2ccc(S(=O)(=O)N3CCCC3)cn2)cn1
16,823 s,CCN1CCN(c2ccc(NC(=O)c3ccc(C(F)(F)F)cc3)cn2)C1=O
17,861 s,CC1=C(c2ccc(F)cc2)S(=O)(=O)N=C1N1CCC(NC(=O)NC(C)C)CC1
18,625 s,Cc1ccc(C(=O)N2CCn3c(nnc3C(C)C)C2)s1
19,618 s,CCOc1cccc(C2CC(c3cccc(OC)c3)=NC3(CCN(C(C)C)CC3)N2)c1O (centres undefined)
20,1040 s,Cc1ccccc1CNC(=O)C1(C)CCCN(C(=O)Nc2ccc(F)c(Cl)c2)C1 (centres undefined)

# More lines, now with the values behind:
row,Structure (SMILES),RP-LC retention time
1,Cc1nccn1-c1cc(C(C)C)c(C#N)c2nc3ccccc3n12,622 s
2,Cc1cccc(NC(=O)Cn2ccc3sccc3c2=O)c1,701 s
3,CCN(CC)CCNC(=O)CCc1c(C)nc2c(c1C)c(=O)n(C)c(=O)n2C,602 s
4,O=C(Nc1ccc(Cl)c(Cl)c1)N1CC(c2nc(-c3cnccn3)no2)C1,746 s
5,CCc1ccc(-c2csc(Cc3nc(-c4ccc5c(c4)OCO5)no3)n2)cc1,1300 s
6,COc1ccc(-c2nc(NC(=O)c3ccc(-c4nc5ccccc5s4)s3)sc2C)cc1,1400 s
7,Cc1cc(NC(=O)C2CC2)nn1Cc1ccccc1,746 s
8,COc1ccc(Nc2c(-c3ccc(N(C)C)cc3)nc3cnccn23)cc1,740 s
9,CCCCN1C(=O)C(NC(=O)c2ccccc2OC)(C(F)(F)F)C(C(=O)OC)=C1C (centres undefined),1070 s
10,O=C(Nc1ccc2c(c1)N(S(=O)(=O)c1ccccc1)CCC2)c1ccc2c(c1)OCO2,834 s
11,O=C(Nc1nnc(-c2cccs2)o1)c1ccc([N+](=O)[O-])o1,677 s
12,CC[C@@H](Nc1c(Nc2cccc(C(=O)N(C)C)c2O)c(=O)c1=O)c1cc(C(C)C)co1,772 s
13,Cc1ccc2c(c1)c1c(n2CC(O)Cn2nc(C)cc2C)CCCC1 (centres undefined),1050 s
14,O=C(C1CCC1)N1CCC(c2noc(-c3cnccn3)n2)C1 (centres undefined),655 s
15,Cc1ccc(NC(=O)Cn2c(C)nc(C)c(C)c2=O)cc1C,690 s
16,O=C([C@@H]1C[C@H](F)CN1C(=O)NCc1ccc(OC(F)(F)F)cc1)N1CCCCC1,809 s
17,Cc1cc(OC(C)C(=O)N[C@H](C(=O)O)c2ccccc2)c2c3c(c(=O)oc2c1)CCC3 (some centres undefined),843 s
18,CN(C)S(=O)(=O)N(CC(=O)Nc1ccccc1C(F)(F)F)c1ccccc1,972 s
19,Cc1ccc(CNC(=O)C2CCN(Cc3cc4ccccc4n3Cc3ccccc3C)CC2)o1,800 s
20,O=C(NCC1CCCO1)c1ccccc1OCc1nc(-c2ccccc2)no1 (centres undefined),898 s
21,O=C(Nc1ccc(OCc2nnc(-c3ccc(Cl)cc3)o2)cc1)c1ccoc1,942 s
22,Cc1nc(-c2cccnc2)nc2c1CCC(=O)N2Cc1ccncc1,554 s
23,CCN(CC)c1nc2cc(C(=O)OC)ccc2c(=O)n1Cc1ccc(C)cc1,1310 s
24,CCN(Cc1ccccc1)C(=O)CN1C(=O)N(c2cc(C)cc(C)c2)C2CS(=O)(=O)CC21 (centres undefined),893 s

row,Structure (SMILES),RP-LC retention time
1,CC(Oc1cccc(Cl)c1)C(=O)Nc1ccc2c(c1)Sc1ncccc1C(=O)N2C (centres undefined),911 s
2,Cc1ccc(-c2nnc(SCc3cccc(Cl)c3)o2)cc1,1210 s
3,CCOc1ccc(-c2cn3ccn(-c4ccc(OC)cc4)c(=O)c3n2)cc1,830 s
4,COc1ccc(Cl)cc1N1C=C(C#N)S(=O)(=O)c2ccc(F)cc21,968 s
5,C[C@H](NC(=O)[C@H](Cc1ccccc1)NC(=O)OCc1ccccc1)C(=O)CF,824 s
6,O=c1c2nc(-c3ccccc3)cn2ccn1-c1ccc(F)cc1,775 s
7,COc1ccc2c(c1)CCCN2C(N)=Nc1ccc(Cl)cc1,753 s
8,COc1cc(CN(C)C2CCc3nnc(C4CCOCC4)n3CC2)cc(OC)c1 (centres undefined),544 s
9,Cc1cc(C(=O)NCC(O)c2cccc3ccccc23)c(C)o1 (centres undefined),801 s
10,Cc1cc(C(=O)Nc2cccc(Cl)c2)nc2ccnn12,988 s
11,CCCCN1C(=O)C(C)(C(=O)NCc2ccccc2C)Oc2cccnc21 (centres undefined),1050 s
12,Cc1ccc(C)c(Cn2nc(-c3nc(C(C)(C)C)no3)ccc2=O)c1,1170 s
13,Cc1cc2c(=O)n(CC(=O)NCc3ccc(Cl)cc3)c3cccnc3n2n1,714 s
14,O=C(CC1=CCCCC1)N1CC(F)(F)C[C@H]1c1nc(C2CC2)no1,1000 s
15,CCOC(=O)c1noc2ncnc(Nc3ccccc3OCC)c12,971 s
16,CCN(CC)CCNC(=O)C1CCCN(c2nc3cccnc3s2)C1 (centres undefined),577 s
17,O=C(Nc1nnc(-c2ccco2)o1)c1ccc2c(c1)CCCC2,775 s
18,Oc1cccc(-c2nc3cnccn3c2Nc2ccc(Br)cc2)c1,1020 s
19,COCCCNC(=O)N1CCCCCC1c1ccccc1Cl (centres undefined),933 s
20,CCCN1C(=O)CN(S(=O)(=O)c2ccc(C)cc2)CC1(C)C(=O)NCc1ccccc1 (centres undefined),864 s
21,COc1ccc(C(=O)N(CC(=O)N(Cc2ccco2)CC2CCCO2)C(C)(C)C)cc1 (centres undefined),862 s
22,O=C(NCc1ccco1)c1c(O)c2sccc2[nH]c1=O,787 s
23,Cc1ccn2cc(C(=O)NCc3ccccc3Cl)nc2c1,675 s
24,O=C(NCC(F)(F)F)C1CN(C(=O)COc2ccccc2F)C1,666 s
